In ChEMBL document CHEMBL1201862, “PubChem BioAssay data set” (2004):
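Grown in 96-well plates, cells were treated for 48 hours with each compound at five concentrations. Insufficient inhibition: endpoint recorded as highest concentration tested. GI50: concentration for 50% inhibition of growth.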 Active and inactive are the calls of the source. Rule as the data show it: active = GI50 up to about 1.1 µM and inactive = higher.

Key:
Assay in all cases: NCI anticancer screen, dose series, 48 h
HCT-15 = test system: HCT-15
TK-10 = test system: TK-10
SW-620 = test system: SW-620
SF-295 = test system: SF-295
MDA-MB-231 = test system: MDA-MB-231
Malme-3M = test system: Malme-3M
CCRF-CEM = test system: CCRF-CEM
HCC 2998 = test system: HCC 2998
NCI-H522 = test system: NCI-H522
SR = test system: SR
SF-539 = test system: SF-539
DU-145 = test system: DU-145
A498 = test system: A498
U-251 = test system: U-251
UACC-62 = test system: UACC-62
MCF7 = test system: MCF7
IGROV-1 = test system: IGROV-1
SK-MEL-2 = test system: SK-MEL-2
OVCAR-5 = test system: OVCAR-5
SNB-75 = test system: SNB-75

Row | Structure (SMILES) | GI50 (HCT-15) [µM] | GI50 (TK-10) | GI50 (SW-620) | GI50 (SF-295) | GI50 (MDA-MB-231) | GI50 (Malme-3M) | GI50 (CCRF-CEM) | GI50 (HCC 2998) | GI50 (NCI-H522) | GI50 (SR) | GI50 (SF-539) | GI50 (DU-145) | GI50 (A498) | GI50 (U-251) | GI50 (UACC-62) | GI50 (MCF7) | GI50 (IGROV-1) | GI50 (SK-MEL-2) | GI50 (OVCAR-5) | GI50 (SNB-75)
1 | Cc1nc(C)c(N2CCN(C(=O)O)CC2)c(O)n1 | > 100 | > 100 µM (inactive) | > 100 µM (inactive) | > 100 µM (inactive) | > 100 µM (inactive) | > 100 µM (inactive) | > 100 µM (inactive) | > 100 µM (inactive) | > 100 µM (inactive) | > 100 µM (inactive) | > 100 µM (inactive) | > 100 µM (inactive) | > 100 µM (inactive) | > 100 µM (inactive) | > 100 µM (inactive) | > 100 µM (inactive) | > 100 µM (inactive) |  |  | 
2 | CC(C)(C)c1cc(-c2cc(C(C)(C)C)[nH]n2)[nH]n1 | > 100 | > 100 µM (inactive) | > 100 µM (inactive) | > 100 µM (inactive) | > 100 µM (inactive) | > 100 µM (inactive) | 39.4 µM (inactive) | > 100 µM (inactive) | > 100 µM (inactive) | 39.1 µM (inactive) | > 100 µM (inactive) | > 100 µM (inactive) | > 100 µM (inactive) | > 100 µM (inactive) | > 100 µM (inactive) | > 100 µM (inactive) | > 100 µM (inactive) | > 100 µM (inactive) | > 100 µM (inactive) | 
3 | Nc1cc([N+](=O)[O-])ccc1C(=O)N1CCC[C@H]1CO | > 100 | > 100 µM (inactive) | > 100 µM (inactive) | > 100 µM (inactive) | > 100 µM (inactive) | > 100 µM (inactive) | > 100 µM (inactive) |  | > 100 µM (inactive) | > 100 µM (inactive) | > 100 µM (inactive) | > 100 µM (inactive) | > 100 µM (inactive) | > 100 µM (inactive) | > 100 µM (inactive) | > 100 µM (inactive) | > 100 µM (inactive) | > 100 µM (inactive) |  | > 100 µM (inactive)
4 | C=C(C)C1CC/C(C)=C/CC[C@]2(C)O[C@H]2CC/C(COC(C)=O)=C\[C@@H]1O (stereo partly specified) | > 50 | > 50 µM (inactive) | > 50 µM (inactive) | 30.7 µM (inactive) | > 50 µM (inactive) |  | 16.3 µM (inactive) | > 50 µM (inactive) | 19.2 µM (inactive) | 34.6 µM (inactive) | > 50 µM (inactive) | > 50 µM (inactive) | > 50 µM (inactive) | > 50 µM (inactive) | > 50 µM (inactive) | > 50 µM (inactive) | > 50 µM (inactive) | > 50 µM (inactive) | > 50 µM (inactive) | 
5 | CCN(CC)CCC(=O)c1ccc(C)cc1 | 18.7 | > 10 µM (inactive) | 17 µM (inactive) | > 100 µM (inactive) | 14.9 µM (inactive) | 23 µM (inactive) | 10.1 µM (inactive) | 43 µM (inactive) | 13.8 µM (inactive) | 28 µM (inactive) | 88.3 µM (inactive) | 39.6 µM (inactive) | 16.4 µM (inactive) | > 100 µM (inactive) | 28.4 µM (inactive) | 4.88 µM (inactive) | 17.7 µM (inactive) |  | 17.3 µM (inactive) | 11.5 µM (inactive)
6 | Cc1ccc(-c2cc(-c3ccccc3)nc(N)n2)c(O)c1 | > 22.9 | > 60.1 µM (inactive) | > 22.7 µM (inactive) | 39.4 µM (inactive) | > 100 µM (inactive) | > 100 µM (inactive) | 3.4 µM (inactive) | > 100 µM (inactive) | 5.4 µM (inactive) | 0.227 µM (active) | > 60.7 µM (inactive) | > 79.4 µM (inactive) | > 90.6 µM (inactive) | 42.1 µM (inactive) | > 78.2 µM (inactive) | 58.1 µM (inactive) |  | > 28.9 µM (inactive) | > 100 µM (inactive) | 
7 | Cc1ccc(C(=O)Cc2nc3ncccc3[nH]c2=O)cc1 | 41.2 | 29.9 µM (inactive) | 80 µM (inactive) | 45.4 µM (inactive) | 24.9 µM (inactive) | 23.2 µM (inactive) | > 100 µM (inactive) | 51.5 µM (inactive) | 48.3 µM (inactive) | 48.5 µM (inactive) | 30.5 µM (inactive) | 58.2 µM (inactive) | > 100 µM (inactive) | 22.5 µM (inactive) | 49.8 µM (inactive) | 49.9 µM (inactive) | 37.2 µM (inactive) | > 100 µM (inactive) | 81.5 µM (inactive) | 
8 | O=[N+]([O-])c1cccc(CSc2nc(O)c3nc[nH]c3n2)c1 | > 100 | > 100 µM (inactive) | > 100 µM (inactive) | > 100 µM (inactive) | > 100 µM (inactive) | > 100 µM (inactive) | 9.46 µM (inactive) |  | 76.6 µM (inactive) | > 100 µM (inactive) |  | > 100 µM (inactive) | > 100 µM (inactive) | > 100 µM (inactive) | 50.1 µM (inactive) | > 100 µM (inactive) | > 100 µM (inactive) | > 100 µM (inactive) | > 100 µM (inactive) | > 100 µM (inactive)
